The text below walks through data of publication PMC6271978, “1H-2,3-Dihydroperimidine Derivatives: A New Class of Potent Protein Tyrosine Phosphatase 1B Inhibitors” (Molecules, 2013).

One series deals with T1, PTP1B (GST-PTP1B) (Homo sapiens, UniProt P18031).
T1 sequence (P18031 1-435): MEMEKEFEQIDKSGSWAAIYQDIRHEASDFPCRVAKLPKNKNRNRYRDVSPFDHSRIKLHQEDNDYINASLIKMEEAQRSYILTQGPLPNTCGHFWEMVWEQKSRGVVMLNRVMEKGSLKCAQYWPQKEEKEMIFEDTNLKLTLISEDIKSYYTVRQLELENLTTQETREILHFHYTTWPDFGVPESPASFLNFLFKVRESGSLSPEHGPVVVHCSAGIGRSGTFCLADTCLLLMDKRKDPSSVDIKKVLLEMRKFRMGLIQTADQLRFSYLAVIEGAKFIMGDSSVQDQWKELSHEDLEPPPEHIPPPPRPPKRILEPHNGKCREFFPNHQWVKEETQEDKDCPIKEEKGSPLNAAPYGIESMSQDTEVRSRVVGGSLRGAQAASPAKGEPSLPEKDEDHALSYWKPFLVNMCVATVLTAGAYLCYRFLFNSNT
The series can be described thus: PTP1B inhibition, colorimetric pNPP assay. In kind it is biochemical. The following applies: for inhibition at 20 µg/mL: PTP1B, compound at 20 μg/mL; for inhibition at 20 µg/mL / IC50: pNPP substrate; for IC50: means ± SD of three replications, OA/PC = oleanolic acid positive control; for PTP1B inhibitory activity (in words): pNPP assay, tested at 20 μg/mL.

As a reminder, the inhibition is the change of the read-out against control, counted positive when it falls. A high value points to a strong effect. By melting point is commonly meant the temperature of the solid-liquid transition. In general, IC50 refers to the concentration needed to halve the response being measured. Low readings indicate higher potency, high ones lower potency.

Bounds are passed on as bounds.

At PTP1B (GST-PTP1B), `Brc1ccc(C2Nc3cccc4cccc(c34)N2)cc1` [Compound 2] came in with an inhibition at 20 µg/mL of 37%.

Regarding `Brc1cccc(C2Nc3cccc4cccc(c34)N2)c1` [Compound 3, 2-(3-Bromophenyl)-2,3-dihydro-1H-perimidine], the melting point fell in the range of 161.7 to 163.3 °C. The same compound returned an inhibition at 20 µg/mL against PTP1B (GST-PTP1B) of 42.5%.

As for `Brc1ccccc1C1Nc2cccc3cccc(c23)N1` [Compound 4, 2-(2-Bromophenyl)-2,3-dihydro-1H-perimidine], the inhibition at 20 µg/mL against PTP1B (GST-PTP1B) came out at 17.5%.

On PTP1B (GST-PTP1B), `Oc1ccc(C2Nc3cccc4cccc(c34)N2)cc1` [Compound 5, 4-(2,3-Dihydro-1H-perimidin-2-yl)phenol] showed an inhibition at 20 µg/mL of 7.18%.

`N#Cc1cc(C2Nc3cccc4cccc(c34)N2)ccc1F` [Compound 6, 5-(2,3-Dihydro-1H-perimidin-2-yl)-2-fluorobenzonitrile]: the melting point is 204.4 to 208.4 °C. Further, 20 µg/mL produced 31.6% inhibition against PTP1B (GST-PTP1B).

`Nc1ccc(C2Nc3cccc4cccc(c34)N2)cc1` [Compound 8] had a melting point of 166.4 to 171.9 °C. The inhibition at 20 µg/mL on PTP1B (GST-PTP1B) amounted to 23.8%.

Compound `COC(=O)c1ccc(C2Nc3cccc4cccc(c34)N2)cc1` [Compound 9] returned an inhibition at 20 µg/mL against PTP1B (GST-PTP1B) of 15.3%.

`COC(=O)C1CCCN1C(=O)c1ccc(C2Nc3cccc4cccc(c34)N2)cc1` (centres unmarked) [Compound 10, Methyl 1-(4-(2,3-dihydro-1H-perimidin-2-yl)benzoyl)pyrrolidine-2-carboxylate] came in with a melting point of 171.3 to 176 °C. For the same compound, the inhibition at 20 µg/mL against PTP1B (GST-PTP1B) stood at 26.2%.

For the compound `COC(=O)CNC(=O)c1ccc(C2Nc3cccc4cccc(c34)N2)cc1` [Compound 11], the melting point lay within 193.3 to 198.7 °C. This compound registered an inhibition at 20 µg/mL against PTP1B (GST-PTP1B) of 4.81%.

The compound `CCOC(=O)CCCNC(=O)c1ccc(C2Nc3cccc4cccc(c34)N2)cc1` [Compound 12, Ethyl 4-(4-(2,3-dihydro-1H-perimidin-2-yl)benzamido)butanoate] showed a melting point of 128.6 to 132.5 °C. On PTP1B (GST-PTP1B), at 20 µg/mL the inhibition was 6.83%.

Regarding `CCOC(=O)CCCCNC(=O)c1ccc(C2Nc3cccc4cccc(c34)N2)cc1` [Compound 13, Ethyl 5-(4-(2,3-dihydro-1H-perimidin-2-yl)benzamido)pentanoate], the melting point was in the range of 141.8 to 143.1 °C. The compound also showed an inhibition at 20 µg/mL against PTP1B (GST-PTP1B) of 28.5%.

`CCOC(=O)CCCCCNC(=O)c1ccc(C2Nc3cccc4cccc(c34)N2)cc1` [Compound 14, Ethyl 6-(4-(2,3-dihydro-1H-perimidin-2-yl)benzamido)hexanoate] had a melting point of 145.8 to 147.4 °C. The inhibition at 20 µg/mL against PTP1B (GST-PTP1B) was determined as 35.6%.

`O=C(O)C1CCCN1C(=O)c1ccc(C2Nc3cccc4cccc(c34)N2)cc1` (centres unmarked) [Compound 15, 1-(4-(2,3-Dihydro-1H-perimidin-2-yl)benzoyl)pyrrolidine-2-carboxylic acid] came in with a melting point of 233.1 to 234.3 °C. Also, on PTP1B (GST-PTP1B), the inhibition at 20 µg/mL worked out at 84.2% and it took 20.2 ± 1.94 µM to reach half-maximal inhibition (IC50).

`O=C(O)CNC(=O)c1ccc(C2Nc3cccc4cccc(c34)N2)cc1` [Compound 16] came in with a melting point of 85.4 to 90.3 °C. Further, on PTP1B (GST-PTP1B), 20 µg/mL produced 90% inhibition and 27.8 ± 5.45 µM corresponded to half-maximal inhibition (IC50).

`O=C(O)CCCNC(=O)c1ccc(C2Nc3cccc4cccc(c34)N2)cc1` [Compound 17, 4-(4-(2,3-Dihydro-1H-perimidin-2-yl)benzamido)butanoic acid]: the melting point lay within 99.7 to 103.3 °C. On PTP1B (GST-PTP1B), this compound came in with an inhibition at 20 µg/mL of 73.1% and an IC50 of 22.2 ± 1.6 µM.

The compound `O=C(O)CCCCNC(=O)c1ccc(C2Nc3cccc4cccc(c34)N2)cc1` [Compound 18, 5-(4-(2,3-Dihydro-1H-perimidin-2-yl)benzamido)pentanoic acid] had a melting point of 102.8 to 107.4 °C. On PTP1B (GST-PTP1B), this compound showed an inhibition at 20 µg/mL of 94.8% and an IC50 of 5.53 ± 0.54 µM.

Compound `O=C(O)CCCCCNC(=O)c1ccc(C2Nc3cccc4cccc(c34)N2)cc1` [Compound 19, 6-(4-(2,3-Dihydro-1H-perimidin-2-yl)benzamido)hexanoic acid] returned a melting point of 90.8 to 91.9 °C. On PTP1B (GST-PTP1B), this compound showed an inhibition at 20 µg/mL of 95.3% and an IC50 of 7.82 ± 0.27 µM.

Take `CCOC(=O)CCCOc1ccc(C2Nc3cccc4cccc(c34)N2)cc1` [Compound 21]: the melting point lay in the range of 76.2 to 78.6 °C. At PTP1B (GST-PTP1B), the inhibition at 20 µg/mL came out at 7.45% and the “PTP1B inhibitory activity (in words)” value is “did not show inhibitory activity”.

`CCOC(=O)CCCCOc1ccc(C2Nc3cccc4cccc(c34)N2)cc1` [Compound 22, Ethyl 5-[4-(2,3-dihydro-1H-perimidin-2-yl)phenoxy]pentanoate] gave a melting point of 93.8 to 96.4 °C. At PTP1B (GST-PTP1B), at 20 µg/mL the inhibition was 2.04% and the “PTP1B inhibitory activity (in words)” value was “did not show inhibitory activity”.

`O=C(O)COc1ccc(C2Nc3cccc4cccc(c34)N2)cc1` [Compound 23, 2-[4-(2,3-Dihydro-1H-perimidin-2-yl)phenoxy]acetic acid]: the melting point was more than 265 °C. On PTP1B (GST-PTP1B), this compound displayed an inhibition at 20 µg/mL of 98.4% and an IC50 of 5.88 ± 0.25 µM.

With `O=C(O)CCCOc1ccc(C2Nc3cccc4cccc(c34)N2)cc1` [Compound 24], the melting point is 126.3 to 130.9 °C. On PTP1B (GST-PTP1B), testing at 20 µg/mL gave an inhibition of 10.5% and the “PTP1B inhibitory activity (in words)” value is listed as “no inhibitory activity”.

The compound `O=C(O)CCCCOc1ccc(C2Nc3cccc4cccc(c34)N2)cc1` [Compound 25, 5-[4-(2,3-Dihydro-1H-perimidin-2-yl)phenoxy]pentanoic acid] gave a melting point of 165.9 to 167.8 °C. Further, at PTP1B (GST-PTP1B), the inhibition at 20 µg/mL was found to be 32.1% and the “PTP1B inhibitory activity (in words)” value is “no inhibitory activity”.

`CCOC(=O)C(=O)Nc1ccc(C2Nc3cccc4cccc(c34)N2)cc1` [Compound 26, Ethyl 2-{[4-(2,3-dihydro-1H-perimidin-2-yl)phenyl]amino}-2-oxoacetate] returned a melting point of 132.3 to 135.5 °C. On PTP1B (GST-PTP1B), this compound displayed an inhibition at 20 µg/mL of 91.8% and an IC50 of 1.27 ± 0.06 µM.

`CCOC(=O)CC(=O)Nc1ccc(C2Nc3cccc4cccc(c34)N2)cc1` [Compound 27, Ethyl 3-{[4-(2,3-dihydro-1H-perimidin-2-yl)phenyl]amino}-3-oxopropanoate] had a melting point of 158.2 to 160.7 °C. At 20 µg/mL the inhibition against PTP1B (GST-PTP1B) was 1.68%.

For `CCOC(=O)CCC(=O)Nc1ccc(C2Nc3cccc4cccc(c34)N2)cc1` [Compound 28], the melting point fell in the range of 165.8 to 170.9 °C. At PTP1B (GST-PTP1B), this compound showed an inhibition at 20 µg/mL of 29.7%.

Take `CCOC(=O)CCCC(=O)Nc1ccc(C2Nc3cccc4cccc(c34)N2)cc1` [Compound 29, Ethyl 5-{[4-(2,3-dihydro-1H-perimidin-2-yl]phenyl)amino}-5-oxopentanoate]: the melting point was in the range of 139.9 to 142.5 °C. Further, on PTP1B (GST-PTP1B), testing at 20 µg/mL gave an inhibition of 2.92%.

Consider `O=C(O)CCC(=O)Nc1ccc(C2Nc3cccc4cccc(c34)N2)cc1` [Compound 32], for which, at PTP1B (GST-PTP1B), the inhibition at 20 µg/mL amounted to 29.9% and the “PTP1B inhibitory activity (in words)” value was “no activity”.

Regarding `COC(=O)c1ccc(C2Nc3cccc4cccc(c34)N2)nc1` [Compound 40], on PTP1B (GST-PTP1B), the inhibition at 20 µg/mL is 6.4%.
